Assay results as given in the NIST ThermoML archive (doi:10.1016/j.jct.2010.04.003).

Test: xn = mol fraction of the nth substance listed
Details: 101 kPa, Liquid, Buoyancy - hydrostatic balance with magnetic suspension - one sinker

CN(C)P(=O)(N(C)C)N(C)C [tris(dimethylamino)phosphine oxide] + O
mass density [kg/m3]
Details | 288.15 K | 293.15 K | 298.15 K | 303.15 K | 308.15 K
x1 = 0.0023 | 1001.1 | 1000.05 | 998.77 | 997.25 | 995.51
x1 = 0.00503 | 1003.51 | 1002.29 | 1000.85 | 999.27 | 997.34
x1 = 0.0101 | 1007.82 | 1006.2 | 1004.52 | 1002.76 | 1000.79
x1 = 0.0297 | 1024.31 | 1021.59 | 1018.84 | 1016.02 | 1013.39
x1 = 0.05 | 1036.43 | 1033.08 | 1029.72 | 1026.56 | 1023.13
x1 = 0.07 | 1043.92 | 1040.44 | 1036.96 | 1033.47 | 1029.7
x1 = 0.1 | 1050.24 | 1046.86 | 1042.73 | 1039 | 1034.91
x1 = 0.1496 | 1054.84 | 1050.62 | 1046.2 | 1041.95 | 1037.57
x1 = 0.1999 | 1054.7 | 1050.33 | 1045.83 | 1041.49 | 1037.05
x1 = 0.3008 | 1049.56 | 1045 | 1040.47 | 1036.04 | 1031.66
x1 = 0.3999 | 1044.61 | 1040.34 | 1035.76 | 1031.36 | 1026.94
x1 = 0.5002 | 1040.86 | 1036.54 | 1032.12 | 1027.81 | 1023.35
x1 = 0.6 | 1038.03 | 1033.74 | 1029.39 | 1025.15 | 1020.66
x1 = 0.6997 | 1035.45 | 1031.15 | 1026.79 | 1022.51 | 1018
x1 = 0.8004 | 1033.06 | 1028.72 | 1024.37 | 1020.03 | 1015.57
x1 = 0.8505 | 1031.95 | 1027.66 | 1023.31 | 1019.05 | 1014.64
x1 = 0.91 | 1030.54 | 1026.29 | 1021.95 | 1017.74 | 1013.41
x1 = 0.9499 | 1029.63 | 1025.4 | 1021.07 | 1016.88 | 1012.59
x1 = 0.9703 | 1029.16 | 1024.92 | 1020.61 | 1016.44 | 1012.14
x1 = 0.9849 | 1028.81 | 1024.6 | 1020.3 | 1016.12 | 1011.86
x1 = 0.9937 | 1028.61 | 1024.4 | 1020.1 | 1015.93 | 1011.68
x1 = 0.9967 | 1028.54 | 1024.33 | 1020.03 | 1015.86 | 1011.61
x1 = 1 | 1028.47 | 1024.26 | 1019.96 | 1015.79 | 1011.54
